In ChEMBL document CHEMBL1201862, “PubChem BioAssay data set” (2004):
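All cell lines were grown in 96-well plates and treated with compound for 48 hours. Abbreviation: GI50, concentration required for 50% inhibition of growth.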 Calls of active or inactive are those of the source. No stated cut-off is given here; in the data, active = GI50 up to about 1.1 µM and inactive = higher.

Legend:
Assay in all cases: DTP human tumour cell line panel, 48 h
SK-MEL-28 = test system: SK-MEL-28
SR = test system: SR
UACC-257 = test system: UACC-257
SN12C = test system: SN12C
COLO 205 = test system: COLO 205
UO-31 = test system: UO-31
A498 = test system: A498
UACC-62 = test system: UACC-62
HT-29 = test system: HT-29
SW-620 = test system: SW-620
Malme-3M = test system: Malme-3M
LOX IMVI = test system: LOX IMVI
OVCAR-8 = test system: OVCAR-8
NCI-H522 = test system: NCI-H522
HCT-116 = test system: HCT-116
MDA-MB-231 = test system: MDA-MB-231
T47D = test system: T47D
RPMI-8226 = test system: RPMI-8226
HCT-15 = test system: HCT-15

SMILES | GI50 (SK-MEL-28) | GI50 (SR) | GI50 (UACC-257) | GI50 (SN12C) | GI50 (COLO 205) | GI50 (UO-31) | GI50 (A498) | GI50 (UACC-62) | GI50 (HT-29) | GI50 (SW-620) | GI50 (Malme-3M) | GI50 (LOX IMVI) | GI50 (OVCAR-8) | GI50 (NCI-H522) | GI50 (HCT-116) | GI50 (MDA-MB-231) | GI50 (T47D) | GI50 (RPMI-8226) | GI50 (HCT-15) [µM]
CCOC(=O)c1c(O)cn2c1[nH]c1cccc3cccc2c31 | > 100 µM (inactive) | 50.5 µM (inactive) | > 100 µM (inactive) | > 100 µM (inactive) | 71.6 µM (inactive) | 69.2 µM (inactive) | > 100 µM (inactive) | > 100 µM (inactive) | > 100 µM (inactive) | > 100 µM (inactive) | > 100 µM (inactive) | 46.9 µM (inactive) | 44.1 µM (inactive) | 46.5 µM (inactive) | > 100 µM (inactive) | > 100 µM (inactive) | 50.8 µM (inactive) | > 100 µM (inactive) | 54.6
COC(=O)C12CCC(C(F)(F)C1=O)C2(C)C (stereo unspecified) | > 100 µM (inactive) | > 100 µM (inactive) | > 100 µM (inactive) | > 100 µM (inactive) | > 100 µM (inactive) | > 100 µM (inactive) | > 100 µM (inactive) | > 100 µM (inactive) | > 100 µM (inactive) | > 100 µM (inactive) | > 100 µM (inactive) | > 100 µM (inactive) | > 100 µM (inactive) | > 100 µM (inactive) | > 100 µM (inactive) | > 100 µM (inactive) | > 100 µM (inactive) | > 100 µM (inactive) | > 100
CC(=O)NC(CCCOC(C)=O)C(=O)NC(CCCOC(C)=O)C(=O)NC(CCCOC(C)=O)C(=O)NC(Cc1ccc([N+](=O)[O-])cc1)C(=O)NCC(=O)OCc1ccccc1 (stereo unspecified) | > 100 µM (inactive) | 74 µM (inactive) | > 100 µM (inactive) | > 100 µM (inactive) | > 100 µM (inactive) | > 100 µM (inactive) | > 100 µM (inactive) | > 100 µM (inactive) | > 100 µM (inactive) | > 100 µM (inactive) | > 100 µM (inactive) | > 100 µM (inactive) | > 100 µM (inactive) | > 100 µM (inactive) | > 100 µM (inactive) | > 100 µM (inactive) | > 100 µM (inactive) | > 100 µM (inactive) | > 100
O=C1C(c2c(O)[nH]c3ccc([N+](=O)[O-])cc23)=Nc2ccccc21 | > 100 µM (inactive) | 30.3 µM (inactive) | > 100 µM (inactive) | > 100 µM (inactive) | > 100 µM (inactive) | > 100 µM (inactive) | 98.2 µM (inactive) | > 100 µM (inactive) | > 100 µM (inactive) | > 100 µM (inactive) | > 100 µM (inactive) | > 100 µM (inactive) | > 100 µM (inactive) | > 100 µM (inactive) | > 100 µM (inactive) | 31.7 µM (inactive) | > 100 µM (inactive) | > 100 µM (inactive) | > 100
